Assay results reported in ChEMBL document CHEMBL1155657, “Triterpene glycosides from the Far-Eastern sea cucumber Pentamera calcigera. 1. Monosulfated glycosides and cytotoxicity of their unsulfated derivatives” (J Nat Prod, 2000).

Legend:
Type in all cases: functional, cell-based
[1] = tested on: P388; assay: Cytotoxicity against mouse P388 cells
[2] = tested on: A549; assay: Cytotoxicity against human A549 cells
[3] = tested on: HT-29; assay: Cytotoxicity against human HT29 cells
[4] = Cytotoxicity against human MEL-28 cells; settings: SK-MEL-28

Measured: IC50

C=C(C)[C@H]1[C@@H]2C[C@@]3(C)C4=CC[C@H]5C(C)(C)[C@@H](O[C@@H]6OC[C@@H](O)[C@H](O)[C@H]6O[C@@H]6O[C@H](C)[C@@H](O[C@@H]7O[C@H](CO)[C@@H](O)[C@H](O[C@@H]8OC[C@@H](O)[C@H](OC)[C@H]8O)[C@H]7O)[C@H](O)[C@H]6O[C@@H]6O[C@H](C)[C@@H](O)[C@H](O)[C@H]6O)CC[C@]5(C)[C@@H]4CC[C@]13C(=O)O2
5 µg/mL: all assays above

C=C(C)[C@H]1[C@@H]2C[C@@]3(C)C4=CC[C@H]5C(C)(C)[C@@H](O[C@@H]6OC[C@@H](O)[C@H](O)[C@H]6O[C@@H]6O[C@H](C)[C@@H](O[C@@H]7O[C@H](CO)[C@@H](O)[C@H](O[C@@H]8OC[C@@H](O)[C@H](OC)[C@H]8O)[C@H]7O)[C@H](O)[C@H]6O[C@@H]6O[C@H](CO)[C@@H](O)[C@H](O)[C@H]6O)CC[C@]5(C)[C@@H]4CC[C@]13C(=O)O2
5 µg/mL: all assays above
